Assay results as given in paper PMC5655689, “Therapeutic potential of the phosphino Cu(I) complex (HydroCuP) in the treatment of solid tumors” (Scientific Reports, 2017).
Where “and” joins values, the source holds several entries; their conditions need not be identical. Equal values may be shown once.

Key:
[1] = system: Lewis Lung Carcinoma (LLC); assay: In vivo antitumor activity towards Lewis Lung Carcinoma (LLC) implanted i.m. in C57BL mice; parameters: species or system mouse; conditions: for Average tumor weight (mean ± S.D., g) / Inhibition of tumor growth (%): day 15
Protocol: The schedule of HydroCuP administration in vivo was initially determined by assessing the total dose that could be injected without undue toxicity for different schedules in nontumor-bearing C57BL mice (data not shown). […] Three schedules of i.p. HydroCuP were administered: early treatment (days 3, 5, 7 and 9 after tumor inoculum), intermediate treatment (days 7–14) and late treatment with split-doses (days 9–11 with a loading dose and days 12–14 with a lower maintenance dose). […] Cisplatin treatment schedule was selected according to standard protocols designed to optimize its efficacy and minimize the occurrence of adverse events. For the early treatment, control mice received the vehicle (0.9% NaCl). HydroCuP was dosed at 25, 35 and 50 mg/kg i.p. on days 3, 5, 7, 9, 11 and 13 after tumor implantation. Cisplatin was dosed at 1.5 mg/kg i.p. on days 3, 5, 7, 9, 11 and 13 after tumor implantation.
The mice were purchased from Charles River, Italy, housed in steel cages under controlled environmental conditions (constant temperature, humidity, and 12 h dark/light cycle), and alimented with commercial standard feed and tap water ad libitum. The LLC cell line was purchased from ECACC, United Kingdom. The LLC cell line was maintained in DMEM (Euroclone, Pero, Italy) supplemented with 10% heat-inactivated foetal bovine serum (Euroclone, Pero, Italy), 10 mM L-glutamine, 100 U/mL penicillin, and 100 µg/mL streptomycin in a 5% CO2 air incubator at 37 °C. The LLC was implanted intramuscularly (i.m.) as a 2 × 10^6 cell inoculum into the right hind leg of 8-week old male and female C57BL mice (24 ± 3 g body weight). The antitumor activity of HydroCuP in LLC tumor model has been investigated by means of different schedules (early treatment, intermediate treatment and late treatment) and compared with that promoted by the reference metallodrug, CDDP. In the early-stage treatment, animals were treated at day 3, 5, 7, 9, 11 and 13 after the tumor cell inoculum with an i.p. injection of HydroCuP (25, 35 and 50 mg/kg), CDDP (1.5 mg/kg) or the vehicle solution (0.9% NaCl).
In the intermediate treatment, animals were treated after 7 days from tumor implantation (visible tumor) with daily i.p. doses of HydroCuP (30 and 50 mg/kg), CDDP (1.5 mg/kg) or the vehicle solution (0.9% NaCl). In the late treatment, animals were treated after 9 days from tumor implantation (palpable tumor) with i.p. doses of HydroCuP (50 mg/kg) from day 9 to day 11 and with i.p. doses of HydroCuP (30 mg/kg) from day 12 to day 14, or with daily doses of CDDP (1.5 mg/kg) or with the vehicle solution (0.9% NaCl). At day 15, animals were sacrificed, the legs were amputated at the proximal end of the femur, and the inhibition of tumor growth was determined according to the difference in weight of the tumor-bearing leg and the healthy leg of the animals expressed as a percentage referring to the control animals. Body weight was measured every 2 days and was taken as a parameter for systemic toxicity.

26S proteasome = system: 26S proteasome; parameters: method as in PMID 21388518; conditions: cited from earlier work
[2] = Early treatment, 35 mg/kg i.p. days 3, 5, 7, 9, 11, 13
[3] = Early treatment, 50 mg/kg i.p. days 3, 5, 7, 9, 11, 13

F[P-](F)(F)(F)(F)F.OC[P+](CO)(CO)[Cu-3]([P+](CO)(CO)CO)([P+](CO)(CO)CO)[P+](CO)(CO)CO [HydroCuP, [Cu(thp)4][PF6]]
Average tumor weight (mean ± S.D., g) ([1]; Early treatment, 25 mg/kg i.p. days 3, 5, 7, 9, 11, 13): 0.473 ± 0.12 g | Inhibition of tumor growth (%) ([1]; Early treatment, 25 mg/kg i.p. days 3, 5, 7, 9, 11, 13, 25 mg/kg): 26% and 25.86% | Average tumor weight (mean ± S.D., g) [1, 2]: 0.273 ± 0.04 g | Inhibition of tumor growth (%) [1, 2]: 57.21% | Average tumor weight (mean ± S.D., g) [1, 3]: 0.113 ± 0.04 g | Inhibition of tumor growth (%) [1, 3]: 82.28% | Body weight changes ([1]; Early treatment, LLC-bearing C57BL mice, 15 days): did not induce significant body weight loss | Average tumor weight (mean ± S.D., g) ([1]; Intermediate treatment, 30 mg/kg daily i.p. day 7-14): 0.088 ± 0.03 g | Inhibition of tumor growth (%) ([1]; Intermediate treatment, 30 mg/kg daily i.p. day 7-14, 30 mg/kg): 82% and 82.37% | Average tumor weight (mean ± S.D., g) ([1]; Intermediate treatment, 50 mg/kg daily i.p. day 7-14): 0.071 ± 0.02 g | Inhibition of tumor growth (%) ([1]; Intermediate treatment, 50 mg/kg daily i.p. day 7-14, 50 mg/kg): 85% and 85.85% | Body weight loss ([1]; Intermediate treatment, LLC-bearing C57BL mice): < 10% | Average tumor weight (mean ± S.D., g) ([1]; Late treatment, 50 mg/kg (days 9-11) then 30 mg/kg (days 12-14) daily i.p.): 0.024 ± 0.03 g | Body weight changes / adverse effects ([1]; Late treatment, LLC-bearing C57BL mice): did not induce any adverse effects including significant body weight loss | Effect on CT-L, T-L and C-L catalytic activities of 26S proteasome (26S proteasome): inhibit chymotrypsin-like (CT-L), trypsin-like (T-L) and caspase-like (C-L) catalytic activities of 26S proteasome
